Experiments:
Assay type in all cases: in vivo
[1] = tested on: mice; assay: lethality in mice on inhalation (LC50); settings: 10 minutes, rotating drum, when two figures are given, the actual value lies between them
Method: (§1) Mice were exposed to the anesthetic for a period of 10 minutes in a rotating drum. Observations were then made of the pinch reflex, the corneal reflex and the return of the righting reflex. At least four graded doses were employed to determine the minimum concentration required to anesthetize 50% of the mice used (AC50) and the minimum concentration required to kill 50% of the mice (LC50). The anesthetic index (AI) was then calculated from these minimum concentrations.

[2] = tested on: mice; assay: inhalation anesthesia test in mice (10 min exposure in a rotating drum; pinch, corneal and righting reflexes); settings: for potency as general anesthetics: administered in inhalation-anesthetic-susceptible organisms, in words; for AC50 (minimum concentration required to anesthetize 50% of the mice): inhalation, 10 minutes, rotating drum, at least four graded doses
Method: as §1

[3] = as above; settings: mouse, in vivo, inhaled or intranasal; calculated from LC50 and AC50 in mice; read-out: AI (anesthetic index, LC50/AC50)
Method: as §1

Row | Structure (SMILES) | LC50 (minimum concentration required to kill 50% of the mice) [1] | potency as general anesthetics [2] | AC50 (minimum concentration required to anesthetize 50% of the mice) [2] | selectivity ratio at 10 min [3]
1 | CC1CC1(F)Br (centres unmarked) [Example 4, 1-bromo-1-fluoro-2-methylcyclopropane] | 4-6 % volume | high potency | < 2 % volume | > 2
2 | CC1(F)CC1(F)Br (centres unmarked) [Example 3, 1-bromo-1,2-difluoro-2-methylcyclopropane] | 5 % volume | high potency | 0.5 % volume | 10

— patent US3931344A, “Bromofluorocyclopropanes” (priority 1974, dated 1976)
